Experimental data published in the supplement of paper PMC7695840.
pIC50: −log10 of the molar value. Counter-ions that a name gives are not always drawn.

Experiments:
[1] = tested on: Staphylococcus aureus MW2 delta-mecA (mecA-); experiment: IC50 (growth, competition assay); conditions: cefoxitin: subinhibitory
How it was run: (§1)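 Two fluorescent S. aureus MW2 strains, one carrying and one lacking the resistance gene, were pre-induced, mixed 1:1 and grown unshaken in LB in 1536-well plates for 20 h at 37 °C and 90% humidity with a subinhibitory drug dose set each day. Compounds were tested on five- or nine-point 2-fold gradients in two dye-swapped replicates. DsRed (540/590) and GFP (485/520) signals were scaled per plate between the medians of single-strain controls, and No Treatment was then set to 0.5. For each strain, IC50 was taken as the dose that halved the No Treatment signal, or else the maximal signal.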

[2] = tested on: Staphylococcus aureus MW2 (mecA+); experiment: IC50 (growth, competition assay); conditions: cefoxitin: subinhibitory
How it was run: as §1

Row | Compound | pIC50 ([1]; fluorescent label: DsRed) | pIC50 ([1]; fluorescent label: GFP) | pIC50 ([2]; fluorescent label: DsRed) | pIC50 ([2]; fluorescent label: GFP)
1 | NC(=O)c1cc[n+](CC2=C(C(=O)[O-])N3C(=O)[C@@H](NC(=O)Cc4cccs4)[C@H]3SC2)cc1 [CEFALONIUM] | > 5.01 | > 5.01 | 4.76 | 4.81
2 | Cn1nnnc1SCC1=C(C(=O)O)N2C(=O)[C@@H](NC(=O)[C@H](O)c3ccccc3)[C@H]2SC1 [CEFAMANDOLE SODIUM] | > 5.01 | > 5.01 | 4.27 | 4.28
3 | CO/N=C(\C(=O)N[C@@H]1C(=O)N2C(C(=O)O)=C(CSc3nnnn3C)CS[C@H]12)c1csc(N)n1 [CEFMAX] | > 5.01 | > 5.01 | > 5.01 | > 5.01
4 | CCN1CCN(C(=O)N[C@@H](C(=O)N[C@@H]2C(=O)N3C(C(=O)O)=C(CSc4nnnn4C)CS[C@H]23)c2ccc(O)cc2)C(=O)C1=O [CEFOBID] | > 5.01 | > 5.01 | 4.71 | 4.61
5 | CO[C@@]1(NC(=O)C2SC(=C(C(N)=O)C(=O)O)S2)C(=O)N2C(C(=O)O)=C(CSc3nnnn3C)CS[C@@H]21 (stereo not given in full) [CEFOTAN] | > 5.01 | > 5.01 | 4.83 | 4.83
6 | Cc1cc(O)c(C(=O)N[C@@H](C(=O)N[C@@H]2C(=O)N3C(C(=O)O)=C(CSc4nnnn4C)CS[C@H]23)c2ccc(O)cc2)cn1 [CEFPIRAN] | > 5.01 | > 5.01 | > 5.01 | > 5.01
7 | CC=CC1=C(C(=O)O)N2C(=O)[C@@H](NC(=O)[C@H](N)c3ccc(O)cc3)[C@H]2SC1 [CEFZIL] | > 5.01 | > 5.01 | 3.95 | 3.96
8 | CC1=C(O)C(=O)C=C2C1=CC=C1[C@@]2(C)CC[C@@]2(C)[C@@H]3C[C@](C)(C(=O)O)CC[C@]3(C)CC[C@]12C [CELASTROL] | > 5.01 | > 5.01 | > 5.01 | > 5.01
9 | CCCCCCCCCCCCCCCC[n+]1ccccc1 [CEPACOL] | > 5.01 | > 5.01 | > 5.01 | > 5.01
10 | CCCCCCCCCCCCCCCC[N+](C)(C)C [CETAB] | > 5.01 | > 5.01 | > 5.01 | > 5.01
11 | COc1cc(-c2ccc(/N=N/c3ccc4c(S(=O)(=O)O)cc(S(=O)(=O)O)c(N)c4c3O)c(OC)c2)ccc1/N=N/c1ccc2c(S(=O)(=O)O)cc(S(=O)(=O)O)c(N)c2c1O [CHICAGO SKY BLUE] | > 5.01 | > 5.01 | 4.60 | 4.78
12 | O=C1C(Cl)=C(Cl)C(=O)C(Cl)=C1Cl [CHLORANIL] | 4.80 | 4.76 | 4.17 | 4.08
13 | Cc1nc2ccccc2n1Cc1ccc(Cl)cc1 [CHLORMIDAZOLE] | > 5.01 | > 5.01 | > 5.01 | 4.99
14 | N#Cc1c(Cl)c(Cl)c(Cl)c(C#N)c1Cl [CHLOROTHALONIL] | > 5.01 | > 5.01 | > 5.01 | > 5.01
15 | CC(C)CCC[C@@H](C)[C@H]1CC[C@H]2[C@@H]3CC[C@H]4CC(=O)CC[C@]4(C)[C@H]3CC[C@]12C [CHOLESTAN-3-ONE] | 4.76 | 4.50 | < 3.82 | < 3.82
16 | CCn1nc(C(=O)O)c(=O)c2cc3c(cc21)OCO3 [CINOBAC] | 3.97 | 3.90 | < 3.82 | 3.94
17 | O=C(O)c1cn(C2CC2)c2cc(N3CCNCC3)c(F)cc2c1=O [CIPRO] | > 5.01 | > 5.01 | > 5.01 | > 5.01
18 | CC(=O)NC1CCSC1=O (stereo not given) [CITIOLASE] | 4.91 | 4.41 | 4.25 | 4.99
19 | CC1=C2C(=CO[C@H](C)[C@H]2C)C(O)=C(C(=O)O)C1=O [CITRININ] | 4.58 | 4.53 | 4.53 | 4.32
20 | CO/N=C(\C(=O)N[C@@H]1C(=O)N2C(C(=O)O)=C(COC(C)=O)CS[C@H]12)c1csc(N)n1 [CLAFORAN] | > 5.01 | > 5.01 | 4.81 | 4.82
21 | N#CC(c1ccc(Cl)cc1)c1c(Cl)cc(-n2ncc(=O)[nH]c2=O)cc1Cl (stereo not given) [CLINACOX] | > 5.01 | > 5.01 | 4.82 | 4.64
22 | NC1CCN(c2c(F)cc3c(=O)c(C(=O)O)cn(C4CC4)c3c2Cl)C1 (stereo not given) [CLINAFOXACIN HYDROCHLORIDE] | > 5.01 | > 5.01 | > 5.01 | > 5.01
23 | CCN(CC)CCOc1ccc(C(=C(Cl)c2ccccc2)c2ccccc2)cc1 [CLOMID] | 4.81 | > 5.01 | 4.63 | 4.46
24 | Oc1ccc(Cl)c2cccnc12 [CLOXYQUIN] | 4.47 | > 5.01 | 4.57 | 4.05
25 | CCCCC(CC)COC(=O)CC(C(=O)OCC(CC)CCCC)S(=O)(=O)O (stereo not given) [COLACE] | 4.75 | 4.87 | 4.25 | 4.28
26 | COc1cc2c(c(OC)c1OC)-c1ccc(=O)c(O)cc1[C@@H](NC(C)=O)CC2 [COLCHICEINE] | 4.34 | 4.29 | 4.09 | 4.07
27 | CN1CCN(CCCN2c3ccccc3Sc3ccc(Cl)cc32)CC1 [COMPAZINE] | 4.47 | 4.25 | 3.86 | 4.25
28 | CCCCCCCCCc1ccc(OCCOCCOCCOCCOCCOCCOCCOCCOCCO)cc1 [CONCEPTROL] | 4.89 | > 5.01 | 4.49 | 4.43
29 | O=C(O)CCCCC(CCSCc1ccccc1)SCc1ccccc1 (stereo not given) [CPI-613] | > 5.01 | > 5.01 | 4.81 | 4.82
30 | C[C@H]1COC2=C1C(=O)C(=O)c1c2ccc2c1CCCC2(C)C [CRYPTOTANSHINONE] | 4.95 | 4.98 | 4.89 | 4.80
